Experimental data: US12630498B2 (Genzyme Corporation, priority 2019, dated 2026)
pEC50: −log10 of the molar value.

What was measured:
[1] = biological target: T1, human Cystic Fibrosis Transmembrane Conductance Regulator (CFTR) harboring the ΔF508 mutation (Homo sapiens, UniProt P13569, DEL508-508); assay: H441 cell ΔF508-CFTR-HRP cell surface assay (Emax and EC50); type: cell-based; settings: for Emax: NCI-H441, NA = Not active
T1 construct: expressed in transfected cells; host or cells: H441 carcinoma line (G418-selected)
T1 sequence (P13569 with tags, fused parts or gaps DEL508-508): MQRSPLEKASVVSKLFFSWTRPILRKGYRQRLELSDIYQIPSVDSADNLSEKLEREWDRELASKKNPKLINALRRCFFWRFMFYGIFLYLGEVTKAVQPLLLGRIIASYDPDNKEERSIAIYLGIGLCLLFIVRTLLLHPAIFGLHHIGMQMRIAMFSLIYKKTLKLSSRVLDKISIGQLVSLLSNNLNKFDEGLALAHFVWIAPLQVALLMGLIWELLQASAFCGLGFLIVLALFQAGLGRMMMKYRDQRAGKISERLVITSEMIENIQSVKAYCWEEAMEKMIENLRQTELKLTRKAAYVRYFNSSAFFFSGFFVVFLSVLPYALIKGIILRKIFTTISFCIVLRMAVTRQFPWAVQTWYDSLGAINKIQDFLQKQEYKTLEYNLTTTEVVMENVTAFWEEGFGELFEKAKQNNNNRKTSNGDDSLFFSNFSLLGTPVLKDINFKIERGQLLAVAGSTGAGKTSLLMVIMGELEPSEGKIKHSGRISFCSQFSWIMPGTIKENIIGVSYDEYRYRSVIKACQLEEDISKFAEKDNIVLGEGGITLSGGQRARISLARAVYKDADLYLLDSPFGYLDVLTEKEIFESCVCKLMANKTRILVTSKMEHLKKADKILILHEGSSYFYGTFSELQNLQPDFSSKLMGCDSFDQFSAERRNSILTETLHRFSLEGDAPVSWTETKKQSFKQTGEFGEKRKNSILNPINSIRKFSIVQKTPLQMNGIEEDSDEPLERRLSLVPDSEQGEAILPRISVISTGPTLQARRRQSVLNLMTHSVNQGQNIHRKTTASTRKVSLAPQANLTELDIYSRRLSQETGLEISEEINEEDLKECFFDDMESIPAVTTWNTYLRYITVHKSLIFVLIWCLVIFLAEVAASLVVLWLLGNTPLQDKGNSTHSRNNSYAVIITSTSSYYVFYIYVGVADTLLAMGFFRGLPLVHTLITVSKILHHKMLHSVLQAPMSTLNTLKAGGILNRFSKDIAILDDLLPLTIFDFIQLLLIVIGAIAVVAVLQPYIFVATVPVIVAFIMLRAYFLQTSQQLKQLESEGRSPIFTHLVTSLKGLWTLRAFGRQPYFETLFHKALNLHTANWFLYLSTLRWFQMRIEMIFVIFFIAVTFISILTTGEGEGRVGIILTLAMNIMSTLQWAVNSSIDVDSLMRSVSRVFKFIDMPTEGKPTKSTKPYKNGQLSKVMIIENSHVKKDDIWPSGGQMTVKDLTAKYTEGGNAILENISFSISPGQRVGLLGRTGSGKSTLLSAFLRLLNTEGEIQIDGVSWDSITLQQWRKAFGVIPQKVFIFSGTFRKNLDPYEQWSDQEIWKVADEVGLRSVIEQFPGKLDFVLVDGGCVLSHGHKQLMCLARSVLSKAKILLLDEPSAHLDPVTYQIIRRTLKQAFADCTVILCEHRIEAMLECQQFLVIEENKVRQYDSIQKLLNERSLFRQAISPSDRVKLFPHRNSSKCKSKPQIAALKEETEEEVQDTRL
Method in brief: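 H441 and 41o- bronchial epithelial cells expressing ΔF508-CFTR with an extracellular-loop-4 HRP tag were treated with a 15-point compound series (24.5–0.001 μM) for two nights, H441 at 27° C, 41o- at 37° C with 0.0005 mg/ml doxycycline. Surface HRP luminescence read; % of maximum VX809 signal and EC50 derived.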

[2] = biological target: T2, CFTR-mediated transepithelial chloride transport in primary human bronchial epithelial cells from a ΔF508 homozygous CF donor (Homo sapiens, UniProt P13569, DEL508-508); assay: TECC24 recording of CFTR-mediated transepithelial chloride transport in CF-HBE cells (AUC fold over DMSO); type: cell-based; settings: test agent 10 μM, 48 hours incubation, AUC of forskolin-stimulated IEQ relative to DMSO
T2 construct: Primary human bronchial epithelial cells from a ΔF508 homozygous CF donor; host or cells: primary CF-HBE cells, ΔF508 homozygous donor
T2 sequence (P13569 with tags, fused parts or gaps DEL508-508): as above
Method in brief: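 Equivalent Cl⁻ current was derived from transepithelial voltage and resistance, and its AUC from forskolin (10 μM) to CFTRinh-172 (20 μM) was divided by the DMSO AUC. Benzamil 10 μM blocked ENaC. Cells were ΔF508-homozygous primary bronchial epithelia pretreated 48 h at 36.5 °C in IL-13 medium.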

Row | pEC50 [1] | Emax [1] | TECC24 AUC fold over DMSO @10 μM [2] | SMILES
1 | 7.00 | 353% | A (“A” refers to AUC @10 uM >6) | CC(C)(C)[C@H](NC(=O)c1ccc2ccc(Cl)cc2c1OCc1ccc(C(F)(F)F)cc1)C(=O)O [Example 286, (S)-2-(7-chloro-1-((4-(trifluoromethyl)benzyl)oxy)-2-naphthamido)-3,3-dimethylbutanoic Acid]
2 | 6.10 | 99.1% | C (“C” refers to AUC @10 uM <4) | CC(C)(C)[C@@H](NC(=O)c1ccc2ccc(Cl)cc2c1OCc1ccc(OC(F)(F)F)cc1)C(=O)O [Example 285, (R)-2-(7-chloro-1-((4-(trifluoromethoxy)benzyl)oxy)-2-naphthamido)-3,3-dimethylbutanoic Acid]
3 | 6.15 | 78.9% | C (“C” refers to AUC @10 uM <4) | CC1(C(NC(=O)c2ccc3ccccc3c2OCc2ccc(S(=O)(=O)C(F)(F)F)cc2)C(=O)O)CCCCC1 (stereo not drawn) [Example 77, 2-(1-methylcyclohexyl)-2-(1-((4-((trifluoromethyl)sulfonyl)benzyl)oxy)-2-naphthamido)acetic Acid]
4 | 5.09 | 73.6% | C (“C” refers to AUC @10 uM <4) | O=C(N[C@@H](Cc1ccco1)C(=O)O)c1ccc2ccccc2c1OCc1ccc(C(F)(F)F)cc1 [Example 136, (S)-3-(furan-2-yl)-2-(1-((4-(trifluoromethyl)benzyl)oxy)-2-naphthamido)propanoic Acid]
5 | 7.00 | 204% | C (“C” refers to AUC @10 uM <4) | O=C(N[C@H](C(=O)O)C(c1ccccc1)c1ccccc1)c1ccc2ccccc2c1OCc1ccc(C(F)(F)C(F)(F)F)cc1 [Example 131, (S)-2-(1-((4-(perfluoroethyl)benzyl)oxy)-2-naphthamido)-3,3-diphenylpropanoic Acid]
6 | 5.82 | 154% | C (“C” refers to AUC @10 uM <4) | CC(OCc1ccccc1)[C@H](NC(=O)c1ccc2cc(F)ccc2c1OCc1ccc(Cl)c(Cl)c1)C(=O)O (stereo in doubt) [Example 208, O-benzyl-N-(1-((3,4-dichlorobenzyl)oxy)-6-fluoro-2-naphthoyl)-L-allothreonine]
7 | 5.96 | 88.4% | C (“C” refers to AUC @10 uM <4) | CC(C)(c1ccccc1)[C@H](NC(=O)c1ccc2ccccc2c1OCc1ccc(C(F)(F)F)cc1)C(=O)O [Example 9, (S)-3-methyl-3-phenyl-2-(1-((4-(trifluoromethyl)benzyl)oxy)-2-naphthamido)butanoic Acid]
8 | 6.05 | 117% | C (“C” refers to AUC @10 uM <4) | CC(C)(C)[C@H](NC(=O)c1ccc2ccccc2c1OCc1ccc(Cl)c(Cl)c1)C(=O)O [Example 47, (S)-2-(1-((3,4-dichlorobenzyl)oxy)-2-naphthamido)-3,3-dimethylbutanoic Acid]
9 | 5.89 | 160% | C (“C” refers to AUC @10 uM <4) | C#CC(C)(C)C(NC(=O)c1ccc2ccccc2c1OCc1ccc(SC(F)(F)F)cc1)C(=O)O (stereo not drawn) [Example 227, 3,3-dimethyl-2-[[1-[[4-(trifluoromethylsulfanyl)phenyl]methoxy]naphthalene-2-carbonyl]amino]pent-4-ynoic Acid]
10 | 6.22 | 299% | A (“A” refers to AUC @10 uM >6) | COc1ccc2ccc(C(=O)N[C@H](C(=O)O)C(C)(C)C)c(OCc3ccc(OC(F)(F)F)cc3)c2c1 [Example 310, (S)-2-(7-methoxy-1-((4-(trifluoromethoxy)benzyl)oxy)-2-naphthamido)-3,3-dimethylbutanoic Acid]
11 | 6.52 | 235% | A (“A” refers to AUC @10 uM >6) | CC(C)(C)[C@H](NC(=O)c1ccc2ccc(F)cc2c1OCc1ccc(OC(F)(F)F)cc1)C(=O)O [Example 239, (S)-2-(7-fluoro-1-((4-(trifluoromethoxy)benzyl)oxy)-2-naphthamido)-3,3-dimethyl Butanoic Acid]
12 | 5.82 | 94.4% | A (“A” refers to AUC @10 uM >6) | CC(C)(C)C[C@H](NC(=O)c1ccc2cc(F)ccc2c1OCc1ccc(C(F)(F)F)cc1)C(=O)O [Example 198, (S)-2-(6-fluoro-1-((4-(trifluoromethyl)benzyl)oxy)-2-naphthamido)-4,4-dimethylpentanoic Acid]
13 | 7.00 | 249% | A (“A” refers to AUC @10 uM >6) | CCCC(C)(C)[C@H](NC(=O)c1ccc2ccc(C(F)(F)F)cc2c1OCc1ccc(C(F)(F)F)cc1)C(=O)O [Example 304, (S)-3,3-dimethyl-2-(7-(trifluoromethyl)-1-((4-(trifluoromethyl)benzyl)oxy)-2-naphthamido)hexanoic Acid]
14 | 7.00 | 348% | A (“A” refers to AUC @10 uM >6) | Cc1ccc2ccc(C(=O)N[C@H](C(=O)O)C(C)(C)C)c(OCc3ccc(C(F)(F)F)cc3)c2c1 [Example 279, (2S)-3,3-dimethyl-2-[[7-methyl-1-[[4-(trifluoromethyl)phenyl]methoxy]naphthalene-2-carbonyl]amino]butanoic Acid]
15 | 6.52 | 195% | C (“C” refers to AUC @10 uM <4) | CC(C)(C)[C@H](NC(=O)c1ccc2ccccc2c1OCc1ccc(C(F)(F)C(F)(F)F)cc1)C(=O)O [Example 37, (S)-3,3-dimethyl-2-(1-((4-(perfluoroethyl)benzyl)oxy)-2-naphthamido)butanoic Acid]
16 | 6.22 | 81.1% | C (“C” refers to AUC @10 uM <4) | CC(C)(C)[C@@H](NC(=O)c1ccc2ccc(C(F)(F)F)cc2c1OCc1ccc(C(F)(F)F)cc1)C(=O)O [Example 307, (R)-3,3-dimethyl-2-(7-(trifluoromethyl)-1-((4-(trifluoromethyl)benzyl)oxy)-2-naphthamido)butanoic Acid]
17 | 6.40 | 200% | C (“C” refers to AUC @10 uM <4) | CC(C)(C)[C@H](NC(=O)c1cc(Br)c2ccccc2c1OCc1ccc(C(F)(F)F)cc1)C(=O)O [Example 51, (S)-2-(4-bromo-1-((4-(trifluoromethyl)benzyl)oxy)-2-naphthamido)-3,3-dimethylbutanoic Acid]
18 | 5.82 | 206% | A (“A” refers to AUC @10 uM >6) | CC(C)(C)[C@H](NC(=O)c1ccc2ccc(C#N)cc2c1OCc1ccc(C(F)(F)F)cc1)C(=O)O [Example 248, (2S)-2-[[7-cyano-1-[[4-(trifluoromethyl)phenyl]methoxy]naphthalene-2-carbonyl]amino]-3,3-dimethyl-butanoic Acid]
19 | 6.52 | 100% | C (“C” refers to AUC @10 uM <4) | CC1([C@H](NC(=O)c2ccc3cc(F)ccc3c2OCc2ccc(C(F)(F)F)cc2)C(=O)O)CCCCC1 [Example 40, (S)-2-(6-fluoro-1-((4-(trifluoromethyl)benzyl)oxy)-2-naphthamido)-2-(1-methylcyclohexyl)acetic Acid]
20 | 6.10 | 157% | B (“B” refers to AUC @10 uM between 4-6) | CC(C)(SC1CCCC1)[C@H](NC(=O)c1ccc2ccccc2c1OCc1ccc(C(F)(F)F)cc1)C(=O)O [Example 168, (R)-3-(cyclopentylthio)-3-methyl-2-(1-((4-(trifluoromethyl)benzyl)oxy)-2-naphthamido)butanoic Acid]
21 | 6.22 | 110% | A (“A” refers to AUC @10 uM >6) | CC(C)(C)[C@H](NC(=O)c1ccc2ccc(-c3cscn3)cc2c1OCc1ccc(OC(F)(F)F)cc1)C(=O)O [Example 252, (2S)-3,3-dimethyl-2-[[7-thiazol-4-yl-1-[[4-(trifluoromethoxy)phenyl]methoxy]naphthalene-2-carbonyl]amino]butanoic Acid]
22 | 6.10 | 112% | A (“A” refers to AUC @10 uM >6) | CC(C)(C)[C@H](NC(=O)c1ccc2ccccc2c1OCc1ccc(S(F)(F)(F)(F)F)cc1)C(=O)O [Example 67, (S)-3,3-dimethyl-2-(1-((4-(pentafluoro-l6-sulfanyl)benzyl)oxy)-2-naphthamido)butanoic Acid]
23 | 5.72 | 135% | B (“B” refers to AUC @10 uM between 4-6) | O=C(N[C@H](C(=O)O)C1Cc2ccccc2C1)c1ccc2ccccc2c1OCc1ccc(C(F)(F)F)cc1 [Example 143, (S)-2-(2,3-dihydro-1H-inden-2-yl)-2-(1-((4-(trifluoromethyl)benzyl)oxy)-2-naphthamido)acetic Acid]

Row | SMILES | pEC50 [1] | Emax [1] | TECC24 AUC fold over DMSO @10 μM [2]
24 | C[C@H](OC(C)(C)C)C(NC(=O)c1ccc2ccccc2c1OCc1ccc(C(F)(F)F)cc1)C(=O)O (stereo partly drawn) [Example 134, (3S)-3-(tert-butoxy)-2-(1-((4-(trifluoromethyl)benzyl)oxy)-2-naphthamido)butanoic Acid] | 6.00 | 84.9% | C (“C” refers to AUC @10 uM <4)
